# Patent publication US12168010B2, “Use of co-enzyme antagonists to slow metabolism” (priority 2020, dated 2024)
# “Also recorded” adds a separate entry of the source.
# Assays:
# [1] = In vivo pharmacokinetics: oxythiamine in the brain after B-OT administration
# [2] = Study in dogs on the conversion of B-OT to OT (toxicokinetics of OT in plasma, tolerability); format: in vivo, dogs (Beagle breed)
# Method: FIG. 1: Change in individual plasma concentrations of OT with time (over 24 hours) in male beagle dogs. The y-axis indicates—the plasma concentration in ng/ml. • On the x-axis the time is indicated in hours (h=hours) • (a) Change in individual plasma concentrations on day 1 after administration of a single dose of B-OT in an amount of 1 mg/kg/day. • The symbols mean: • —⋄—=dog no. 3001 • —□—=dog no. 3002 • (b) Change in individual plasma concentrations on day 1 after administration of a single dose of B-OT in an amount of 0.5 mg/kg/day. • The symbols mean: • —Δ—=dog no. 4001 • —∘—=dog no. 4002 • (c) Change in individual plasma concentrations at day 7 after seven days of administration of single doses of B-OT in an amount of 0.5 mg/kg/day. • The symbols mean: • —Δ—=dog no. 4001 • —∘—=dog no. […] • (d) Change in mean plasma concentrations on day 1 after administration of a single dose of B-OT at 1 mg/kg/day, and on day 1 and day 7 after daily administration of single doses of B-OT in an amount of 0.5 mg/kg/day. • The symbols mean: • —□—=group 3, 1.0 mg/kg/day, day 1 • —Δ—=Group 4, 0.5 mg/kg/day, day 1. • —∘—=group 4, 0.5 mg/kg/day, day 7.
# Male and female dogs (Beagle breed) were administered B-OT (benfo-oxythiamine) orally once daily for periods of one to seven days in amounts of 1 mg/kg/day or 0.5 mg/kg/day.
# The toxicokinetics of the active metabolite OT (oxythiamine) was determined in plasma samples obtained on the first day “Day 1” and on the seventh day “Day 7” after the start of administration. The measurement results obtained are shown graphically in FIGS. 1 (a) to (d).
# [3] = tested on: SARS-CoV-2; test: Curative trials: B-OT in addition to standard therapy in patients with covid-19 pneumonia
# [4] = rat, in vivo, po
# From the text: This means that there is a very efficient cleavage of B-OT into OT, and a high percentage amount of OT is present in the blood. Thus, B-OT is a pharmacokinetically good and orally applicable substance that allows good and efficient delivery of OT. Since OT usually must/should be administered intraperitoneally, the oral administration of B-OT represents an important advantage in comparison. The bioavailability and absorption of B-OT is also more suitable for human therapy due to the more lipophilic basic structure of B-OT compared to OT. Compared to OT, B-OT is thus better, easier and safer to use as a drug.
# [5] = Comparison of B-OT amounts per kg body weight in dogs and humans versus rats and mice; format: in vivo
# [6] = Change in pulse beat (heart rate) in dogs after administration of B-OT; format: in vivo; conditions: over 24 hours, B-OT 0.05, 0.15, 0.5 mg/kg/day
# Method: FIG. 2: Graph showing the change in plus beat with time in dogs after administration of different amounts (doses) of B-OT. On the y-axis, the pulse beat (heart rate) is given in beats per minute (bpm). On the x-axis, the time is given in hours. • The symbols mean: • —●=0 mg/kg/day—Benfooxythiamine=0 mg/kg/day—B-OT • —□—=0.05 mg/kg/day—Benfooxythiamine=0.05 mg/kg/day—B-OT • —Δ—=0.15 mg/kg/day—Benfooxythiamine=0.15 mg/kg/day—B-OT • −⋄—=0.5 mg/kg/day—Benfooxythiamine=0.5 mg/kg/day—B-OT
# By slowing down (throttling) the metabolism, GSSV also causes a reduction in the energy released with it. The body attempts to compensate for the lower energy release by increasing the pulse rate in order to transport more oxygen into the body so that more energy can be released as a result. The increase in the patient's pulse beat is an indication and a suitable parameter that GSSV has inhibited energy release and to what extent. If there is a sharp increase in pulse rate, e.g., in a person a pulse rate above 90, countermeasures may be necessary to increase energy release again.
# [7] = all patients with additional B-OT therapy
smiles,measurement,setting,value
"Cc1ncc(C[n+]2csc(CCO)c2C)c(=O)[nH]1 [OT, oxythiamine]",oxythiamine in the brain after B-OT is administered,[1],present in significant amounts in the brain
same,time of maximum OT plasma concentration (Tmax) after administration of B-OT,"[2]; Beagle dogs, oral B-OT, all applied doses",between one and two hours
same,systemic exposure to OT / B-OT,[2]; dogs treated orally with B-OT,achieved in all animals
same,increase in plasma concentrations of oxythiamine (OT) with B-OT dose,"[2]; dogs, stepwise increase of B-OT dose from 0.2 mg/kg to 1.0 mg/kg",approximately linearly proportional to the increase in dose
same,increase in plasma OT based on dose-normalized Cmax and partial AUC,"[2]; male beagle dogs, oral B-OT single doses, over the range of applied doses",less than dose-proportional increase
"C/C(=C(/CCOP(=O)(O)O)SC(=O)c1ccccc1)N(C=O)Cc1cnc(C)[nH]c1=O [B-OT, benfo-oxythiamine]",viral pneumonia infiltrates in lung computed tomography,[3]; after 7 days of B-OT therapy versus before,marked decrease in infiltrates; also recorded: marked decrease of infiltrates; also recorded: significant decrease in the previously pronounced infiltrates
same,C-reactive Protein (CRP),[3]; [7],significant reduction
same,Interleukin-6 (IL-6),[3]; [7],significant reduction
same,required inpatient stay,[3]; compared with the overall collective of more than 700 patients,on average one week less
same,side effects attributable to B-OT,"[3]; four covid-19 pneumonia patients, 6 mg B-OT per day perorally for seven days",None of the patients showed side effects
same,need for intensive care,"[3]; four covid-19 pneumonia patients, 6 mg B-OT per day perorally for seven days plus standard therapy",none of the four patients required intensive care
same,need for respiratory support therapy beyond nasal cannula or mask oxygen insufflation,"[3]; four patients with additional B-OT therapy, versus overall collective of more than 700 patients",none of the four patients
same,lung computed tomography at follow-up,"[3]; patient 2, one month after the end of therapy",stable findings
same,B-OT (prodrug form) measurable in the blood,[4],0%
same,share of total amount of B-OT administered measurable in the blood in the form of oxythiamine (OT),[4],44%
same,behavior and physical condition,"[2]; dog, in vivo",No relevant abnormalities
same,body weight,"[2]; dog, in vivo",no significant variations in body weight
same,systemic exposure to OT / B-OT,"[2]; dog, in vivo, po",exposed to the active metabolite OT but not to the preform (prodrug) B-OT
same,tolerability of treatment,"[2]; dogs, oral B-OT 1 or 0.5 mg/kg/day, one to seven days",well tolerated
same,reaction of dogs and humans to B-OT amounts per kg applied to rats and mice,[5]; rodent amounts per kilogram body weight used in dogs and humans,in many cases led to death
same,dose usable in humans and dogs compared to published amounts used in rats and mice,"[5]; to avoid serious, sometimes fatal, courses",approximately two hundredfold lower dose
same,pulse beat (heart rate),[6],significant increase in pulse beat
